Test results from PMC11124822, “Discovery and Anticancer Screening of Novel Oxindole-Based Derivative Bearing Pyridyl Group as Potent and Selective Dual FLT3/CDK2 Kinase Inhibitor” (Pharmaceuticals, 2024).

What was measured:
[1] = test system: SK-OV-3; assay: NCI-60 antiproliferative screen (SRB); assay type: cell-based, human; details: Homo sapiens; 10 µM single dose, 48 h; SK-OV-3 (Ovarian); read-out: Growth inhibition (%)
[2] = test system: LOX IMVI; assay: NCI-60 antiproliferative screen (SRB); assay type: cell-based, human; details: Homo sapiens; 10 µM single dose, 48 h; LOX IMVI (Melanoma); read-out: Growth inhibition (%)
[3] = test system: MDA-MB-435; assay: NCI-60 antiproliferative screen (SRB); assay type: cell-based, human; details: Homo sapiens; 10 µM single dose, 48 h; MDA-MB-435 (Melanoma); read-out: Growth inhibition (%)
[4] = test system: HT29; assay: NCI-60 antiproliferative screen (SRB); assay type: cell-based, human; details: Homo sapiens, HT-29; 10 µM single dose, 48 h; HT29 (Colon); read-out: Growth inhibition (%)
[5] = test system: COLO 205; assay: NCI-60 antiproliferative screen (SRB); assay type: cell-based, human; details: Homo sapiens; 10 µM single dose, 48 h; COLO 205 (Colon); read-out: Growth inhibition (%)
[6] = test system: HL-60(TB); assay: NCI-60 antiproliferative screen (SRB); assay type: cell-based, human; details: Homo sapiens; 10 µM single dose, 48 h; HL-60(TB) (Leukemia); read-out: Growth inhibition (%)
[7] = test system: KM12; assay: NCI-60 antiproliferative screen (SRB); assay type: cell-based, human; details: Homo sapiens; 10 µM single dose, 48 h; KM12 (Colon); read-out: Growth inhibition (%)
[8] = test system: NCI-H226; assay: NCI-60 antiproliferative screen (SRB); assay type: cell-based, human; details: Homo sapiens; 10 µM single dose, 48 h; NCI-H226 (NSCLC); read-out: Growth inhibition (%)
[9] = test system: SK-MEL-5; assay: NCI-60 antiproliferative screen (SRB); assay type: cell-based, human; details: Homo sapiens; 10 µM single dose, 48 h; SK-MEL-5 (Melanoma); read-out: Growth inhibition (%)
[10] = test system: HCT-15; assay: NCI-60 antiproliferative screen (SRB); assay type: cell-based, human; details: Homo sapiens; 10 µM single dose, 48 h; HCT-15 (Colon); read-out: Growth inhibition (%)
[11] = test system: NCI-60 human cancer cell lines; assay: NCI-60 screen, full panel summary; assay type: cell-based; details: 10 µM single dose; for Mean Growth Percent: all NCI-60 cell lines; for inhibition at 10 µM: Homo sapiens, read-out: Range of Growth Inhibition on All Cells
Protocol: In a comprehensive test, compounds were assayed at a single dose concentration (10^−5 M) in the full panel of NCI-60 cancer cell lines.

[12] = test system: MALME-3M; assay: NCI-60 antiproliferative screen (SRB); assay type: cell-based, human; details: Homo sapiens; 10 µM single dose, 48 h; MALME-3M (Melanoma); read-out: Growth inhibition (%)
[13] = test system: SW-620; assay: NCI-60 antiproliferative screen (SRB); assay type: cell-based, human; details: Homo sapiens; 10 µM single dose, 48 h; SW-620 (Colon); read-out: Growth inhibition (%)
[14] = test system: SF-539; assay: NCI-60 antiproliferative screen (SRB); assay type: cell-based, human; details: Homo sapiens; 10 µM single dose, 48 h; SF-539 (CNS); read-out: Growth inhibition (%)
[15] = test system: MOLT-4; assay: NCI-60 antiproliferative screen (SRB); assay type: cell-based; details: Homo sapiens; 10 µM single dose, 48 h; MOLT-4 (Leukemia); read-out: Growth inhibition (%)
[16] = test system: UACC-62; assay: NCI-60 antiproliferative screen (SRB); assay type: cell-based, human; details: Homo sapiens; 10 µM single dose, 48 h; UACC-62 (Melanoma); read-out: Growth inhibition (%)
[17] = test system: SR; assay: NCI-60 antiproliferative screen (SRB); details: Homo sapiens, 48 h, read-out: Growth inhibition (%)
Protocol: (§1) Anticancer activity was tested against 60 cancer cell lines (NCI-60) after 48h treatments with a single dosage of 10 μM of compounds by using sulforhodamine B assay [39] on the traditional 96-well platform. […] The human cancer cell lines of the NCI-60 panel are grown in RPMI 1640 medium supplemented with 5% FBS (fetal bovine serum) and 2 mM L-glutamine. […] For further analysis of promising compounds, five dose screens were performed against the NCI-60 panel. Drug treatments are performed in 5 doses using 10-fold or ½ log dose dilutions.

[18] = test system: IGROV1; assay: NCI-60 antiproliferative screen (SRB); assay type: cell-based, human; details: Homo sapiens, IGROV-1; 10 µM single dose, 48 h; IGROV1 (Ovarian); read-out: Growth inhibition (%)
[19] = test system: CAKI-1; assay: NCI-60 antiproliferative screen (SRB); assay type: cell-based, human; details: Homo sapiens; 10 µM single dose, 48 h; CAKI-1 (Renal); read-out: Growth inhibition (%)
[20] = test system: EKVX; assay: NCI-60 antiproliferative screen (SRB); assay type: cell-based, human; details: Homo sapiens; 10 µM single dose, 48 h; EKVX (NSCLC); read-out: Growth inhibition (%)
[21] = test system: SN12C; assay: NCI-60 antiproliferative screen (SRB); assay type: cell-based, human; details: Homo sapiens; 10 µM single dose, 48 h; SN12C (Renal); read-out: Growth inhibition (%)
[22] = test system: T-47D; assay: NCI-60 antiproliferative screen (SRB); assay type: cell-based, human; details: Homo sapiens, T47D; 10 µM single dose, 48 h; T-47D (Breast); read-out: Growth inhibition (%)
[23] = test system: M14; assay: NCI-60 antiproliferative screen (SRB); assay type: cell-based, human; details: Homo sapiens; 10 µM single dose, 48 h; M14 (Melanoma); read-out: Growth inhibition (%)
[24] = test system: NCI-H522; assay: NCI-60 antiproliferative screen (SRB); assay type: cell-based, human; details: Homo sapiens; 10 µM single dose, 48 h; NCI-H522 (NSCLC); read-out: Growth inhibition (%)
[25] = test system: NCI-H322M; assay: NCI-60 antiproliferative screen (SRB); assay type: cell-based, human; details: Homo sapiens; 10 µM single dose, 48 h; NCI-H322M (NSCLC); read-out: Growth inhibition (%)
[26] = test system: SNB-19; assay: NCI-60 antiproliferative screen (SRB); assay type: cell-based, human; details: Homo sapiens; 10 µM single dose, 48 h; SNB-19 (CNS); read-out: Growth inhibition (%)
[27] = test system: UO-31; assay: NCI-60 antiproliferative screen (SRB); assay type: cell-based, human; details: Homo sapiens; 10 µM single dose, 48 h; UO-31 (Renal); read-out: Growth inhibition (%)
[28] = test system: SNB-75; assay: NCI-60 antiproliferative screen (SRB); details: Homo sapiens, SNB-75, 48 h, read-out: Growth inhibition (%)
Protocol: as §1

[29] = test system: HCC-2998; assay: NCI-60 antiproliferative screen (SRB); assay type: cell-based, human; details: Homo sapiens; 10 µM single dose, 48 h; HCC-2998 (Colon); read-out: Growth inhibition (%)
[30] = test system: HOP-62; assay: NCI-60 antiproliferative screen (SRB); assay type: cell-based, human; details: Homo sapiens; 10 µM single dose, 48 h; HOP-62 (NSCLC); read-out: Growth inhibition (%)

| Compound | inhibition at 10 µM [1] [%] | inhibition at 10 µM [2] [%] | inhibition at 10 µM [3] [%] | inhibition at 10 µM [4] [%] | inhibition at 10 µM [5] [%] | inhibition at 10 µM [6] [%] | inhibition at 10 µM [7] [%] | inhibition at 10 µM [8] [%] | inhibition at 10 µM [9] [%] | inhibition at 10 µM [10] [%] | Positive Cytostatic Effect (cell lines with percent growth from 0 to 50 / total number of cell lines) [11] | Positive Cytotoxic Effect (cell lines with percent growth of <0 / total number of cell lines) [11] | Sensitive/Total Cell Lines [11] | Mean Growth Percent [11] | inhibition at 10 µM [12] [%] | inhibition at 10 µM [13] [%] | inhibition at 10 µM [14] [%] | inhibition at 10 µM [15] [%] | inhibition at 10 µM [16] [%] | inhibition at 10 µM [17] [%] | further results |
| --- | --- | --- | --- | --- | --- | --- | --- | --- | --- | --- | --- | --- | --- | --- | --- | --- | --- | --- | --- | --- | --- |
| O=C1Nc2ccc(Cl)cc2C1=Cc1ccc(OCc2ccccc2)cc1 (mixture of isomers) [Compound 5c, (E/Z)-3-[4-(Benzyloxy)benzylidene]-5-chloroindolin-2-one] | -1.7 | 0.14 | -3.79 | -2.95 | -6.62 | -3.22 | -1.02 | 11.1 | 1.9 | -4.25 | 0/59 | 0/59 | 0/59 | 0.10 | -13 | 1.08 | 4.12 | 3.28 | 5.69 | -0.06 | antiproliferative activity (in words) [11]: weak antiproliferative activity; inhibition at 10 µM [11]: -13 to 23.9%; inhibition at 10 µM [18]: -5.14%; inhibition at 10 µM [19]: 13.4%; inhibition at 10 µM [20]: 0.85%; inhibition at 10 µM [21]: 0.7%; inhibition at 10 µM [22]: 4.11%; inhibition at 10 µM [23]: 7.34%; inhibition at 10 µM [24]: 2.1%; inhibition at 10 µM [25]: -0.07%; inhibition at 10 µM [26]: -1.05%; inhibition at 10 µM [27]: 23.9%; inhibition at 10 µM [28]: 13.1%; inhibition at 10 µM [29]: -3.96%; inhibition at 10 µM [30]: 3.77% |
| O=C1Nc2cc(Cl)ccc2C1=Cc1ccc(OCc2ccccc2)cc1 (mixture of isomers) [Compound 5d, (E/Z)-3-[4-(Benzyloxy)benzylidene]-6-chloroindolin-2-one] | -3.01 | 7.32 | 0.59 | -5.27 | -9.74 | -13.1 | 4.92 | 7.13 | 2.83 | 5 | 0/59 | 0/59 | 0/59 | 0.13 | -15.4 | 0.6 | 5.48 | 0.86 | 4.09 | -4.93 | antiproliferative activity (in words) [11]: weak antiproliferative activity; inhibition at 10 µM [11]: -54 to 38.4%; inhibition at 10 µM [18]: 8.41%; inhibition at 10 µM [19]: 10.7%; inhibition at 10 µM [20]: -0.31%; inhibition at 10 µM [21]: 4.03%; inhibition at 10 µM [22]: 4.32%; inhibition at 10 µM [23]: 3.83%; inhibition at 10 µM [24]: 0.19%; inhibition at 10 µM [25]: 0.49%; inhibition at 10 µM [26]: -3.09%; inhibition at 10 µM [27]: 23.8%; inhibition at 10 µM [28]: 26.7%; inhibition at 10 µM [29]: -1.79%; inhibition at 10 µM [30]: 3.85% |
| O=C1Nc2ccc(Cl)cc2C1=Cc1ccc(OCc2ccccn2)cc1 (mixture of isomers) [Compound 5g, (E/Z)-5-Chloro-3-[4-(pyridin-2-ylmethoxy)benzylidene] indolin-2-one] | 10.8 | 43.5 | 23.1 | 32.5 | 10.9 | 15 | 21.2 | 98.7 | 10.5 | 64.3 | 17/59 | 1/59 | 18/59 | 38.63 | 61.5 | 52.5 | 26.5 | 53.1 | 33.3 | 45.1 | The Most Sensitive Cell Line [11]: OVCAR-4; number of cell lines with cytostatic effects [11]: 17; number of cell lines with cytotoxic effects [11]: 1; inhibition at 10 µM [18]: 45.4%; inhibition at 10 µM [19]: 38.4%; inhibition at 10 µM [20]: 34.3%; inhibition at 10 µM [21]: 55.5%; inhibition at 10 µM [22]: 31%; inhibition at 10 µM [23]: 10.1%; inhibition at 10 µM [24]: 34%; inhibition at 10 µM [25]: 35.8%; inhibition at 10 µM [26]: 49.3%; inhibition at 10 µM [27]: 40.5%; inhibition at 10 µM [28]: -12.6%; inhibition at 10 µM [29]: -4.51%; inhibition at 10 µM [30]: 54.4% |
